Test results from PubChem BioAssay (NCI).
“And” between values parts separate entries of the source, which are not always exact repeats. Identical values can stand only once.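 Growth conditions: 96-well plates. Treatment: test compound, 48 hours, 5 concentrations. Analysis: linear interpolation between bracketing concentrations; unreached endpoints set to highest concentration. GI50 is the concentration that inhibits growth by half. Definition used: TGI = concentration required for complete inhibition of growth.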

Columns and labels:
Experiment in all cases: NCI tumour cell line growth inhibition, 48 h
ACHN renal = system: ACHN renal
NCI-H226 lung = system: NCI-H226 lung
OVCAR-8 ovarian = system: OVCAR-8 ovarian
MDA-MB-231 breast = system: MDA-MB-231 breast
HS 578T breast = system: HS 578T breast
UACC-257 melanoma = system: UACC-257 melanoma
OVCAR-3 ovarian = system: OVCAR-3 ovarian
SK-OV-3 ovarian = system: SK-OV-3 ovarian
KM12 colon = system: KM12 colon
EKVX NSCLC = system: EKVX NSCLC

SMILES	GI50 (ACHN renal)	TGI (ACHN renal) [µM]	GI50 (NCI-H226 lung)	TGI (NCI-H226 lung) [µM]	GI50 (OVCAR-8 ovarian)	TGI (OVCAR-8 ovarian) [µM]	GI50 (MDA-MB-231 breast)	TGI (MDA-MB-231 breast)	GI50 (HS 578T breast)	TGI (HS 578T breast) [µM]	GI50 (UACC-257 melanoma)	TGI (UACC-257 melanoma)	GI50 (OVCAR-3 ovarian) [µM]	TGI (OVCAR-3 ovarian) [µM]	GI50 (SK-OV-3 ovarian) [µM]	TGI (SK-OV-3 ovarian) [µM]	GI50 (KM12 colon)	TGI (KM12 colon) [µM]	GI50 (EKVX NSCLC)	TGI (EKVX NSCLC) [µM]
O=C(CN(C1CCCCC1)C1CCCCC1)Nc1ccc(S(=O)(=O)c2ccc(NC(=O)CN(C3CCCCC3)C3CCCCC3)cc2)cc1	1.17 µM	2.4	2.06 µM	9.43	0.701 µM	3.71	0.432 µM	1.63 µM	1.03 µM	6.9	1.37 µM	3.66 µM	0.279	1.02	8.64	21.6	0.585 µM	2.05	1.41 µM	2.88
CC(=O)c1c(CBr)n([O-])c2ccccc2[n+]1=O	8.12 µM	20.4	13.4 µM	28	18.1 µM	40.7	12.2 µM	25 µM	17.4 µM	48.8	16.7 µM	32.9 µM	3.14	7.67	22.9	71	15 µM	29.2	13.2 µM	30.3
CCN1C(=O)N(CC)C2C1NC(=S)N2/N=C/C=C/c1cccs1 (stereo not given)	0.804 µM	> 100	2.06 µM	> 28.3	0.548 µM	> 100	0.648 µM	> 100 µM	0.281 µM	–	–	> 100 µM	0.241	0.715	0.339	> 100	0.312 µM	> 100	0.464 µM	> 100
O=C(Nc1cccc(Cl)c1)c1cc2ccccc2cc1O	2.55 µM and 0.609 µM	> 100	4.65 µM and 2.68 µM	> 100	2.94 µM and 3.39 µM	> 100	4.65 µM and 2.37 µM	> 100 µM and 15.4 µM	2.12 µM and 3.42 µM	–	1.03 µM and 2.26 µM	7.31 µM and 6.11 µM	1.43	> 100	1.23	4.95	3.17 µM and 2.71 µM	> 100	2.76 µM and 2.05 µM	> 100
COC(COC(=O)N1CCN(C=O)CC1)C1=C(N2CC2)C(=O)C(C)=C(N2CC2)C1=O (stereo not given)	–	0.424	–	3.05	–	1.36	–	8.16 µM	–	5.17	–	1.9 µM	–	2.52	–	2.11	–	2.79	–	10.9
NC(N)=N/N=C/c1cc(Cl)cc(Cl)c1O	–	> 100	–	> 100	–	> 100	–	> 100 µM	–	> 100	–	> 100 µM	–	> 100	–	> 100	–	> 100	–	> 100
Cc1ccc(Nc2nc(N)c(C(=O)c3ccc(C#N)cc3)s2)cc1	0.587 µM	> 80.5	1.6 µM	> 93.5	0.644 µM	> 100	1.01 µM	> 100 µM	0.546 µM	> 100	33.3 µM	> 100 µM	0.319	5.43	0.449	46	0.338 µM	> 87.1	0.573 µM	> 100
O/N=C\c1c(O)ccc2ccccc12	–	70.1	–	> 100	–	> 100	–	> 100 µM	–	> 100	–	> 100 µM	–	66.7	–	> 100	–	> 100	–	> 100
COc1ccc(CNc2c3ccccc3nc3ccccc23)cc1OC	1.39 µM	7.94	2.25 µM	7.04	2.17 µM	12.1	2.37 µM	7.32 µM	2.64 µM	10.1	2.73 µM	8.22 µM	2.64	8.39	2.44	8.33	3.65 µM	15.5	2.7 µM	12.4
COc1ccc(C2C(C#N)=C(N)OC3=C2COc2ccc(F)cc23)cc1OC (stereo not given)	12.3 µM	37.2	13.9 µM	51.1	28.5 µM	> 100	14.3 µM	58.8 µM	35.6 µM	81.7	41.4 µM	> 100 µM	17.5	43.5	37.3	> 100	23.5 µM	69.2	17.8 µM	> 100
CC(=O)O[C@@H]1C[C@]2(C(C)C)O[C@@]1(C)[C@@H]1CCC(C)=C1[C@@H]2OC(=O)/C=C/c1ccccc1	4.49 µM	> 100	29.1 µM	> 100	8.89 µM	> 100	49.3 µM	> 100 µM	4.79 µM	> 100	27.8 µM	> 100 µM	22.5	> 100	71.3	> 100	40 µM	> 100	20 µM	> 100
CCCS(=O)(=O)Nc1ccc(Nc2c3ccccc3nc3ccccc23)c(OC)c1	–	4.02	–	13	–	5.82	–	10.4 µM	–	16.7	–	19.8 µM	–	7.86	–	16.4	–	14.7	–	28.8
O=C(O)c1ccccc1-c1ccccc1C(=O)Nc1ccc2c(c1)Cc1cc(F)ccc1-2	–	64.2	–	> 100	–	> 100	–	83.2 µM	–	> 100	–	52.2 µM	–	45.6	–	> 100	–	> 100	–	77.3
CCN(CC)CCNCC(=O)Oc1ccc(/C=C/C(=O)CC(=O)/C=C/c2ccc(OC(=O)CNCCN(CC)CC)c(OC)c2)cc1OC	5.28 µM	20.8	6.97 µM	22.1	3.69 µM	15	4.94 µM	29.3 µM	3.59 µM	26.4	3.58 µM	16.9 µM	4.11	> 100	3.71	12.6	3.5 µM	31.6	2.01 µM	5.4
Nc1ccncc1/C=C1/C(=O)Nc2ccccc21	43.7 µM	> 100	40.5 µM	> 100	62.5 µM	> 100	50.1 µM	> 100 µM	41.2 µM	> 100	> 100 µM	> 100 µM	25.4	76.3	46.7	> 100	25 µM	> 100	47.2 µM	> 100
O=C(Nc1cccc(Cl)c1Cl)c1cccc(NC2=C(Cl)C(=O)N(Cc3ccccc3)C2=O)c1	54.7 µM	> 100	31.7 µM	> 100	9.47 µM	42	32.2 µM	> 100 µM	28.7 µM	> 100	23.3 µM	72.3 µM	16.5	77.4	> 100	> 100	82.8 µM	> 100	34.2 µM	89.2
O=C1c2ccn(CCCCNC(CO)(CO)CO)c2C(=O)c2c1c(O)c1ccccc1c2O	0.56 µM	1.89	2.81 µM	9.35	2.17 µM	11.4	0.457 µM	2.26 µM	11.5 µM	> 75	7.71 µM	24.6 µM	0.183	0.388	7.81	> 47.8	0.592 µM	1.76	24.8 µM	74
Cc1[nH]n(-c2cccc(Cl)c2)c(=O)c1/C=C1\C=Nc2ccc(Br)cc21	2.46 µM	5.9	5.81 µM	28.5	3.52 µM	13.8	3.4 µM	15.3 µM	2.46 µM	8.04	85.7 µM	> 100 µM	1.82	3.54	2.22	4.53	6.65 µM	> 100	5.45 µM	73.3
O=C(Nc1ccc(Cl)cc1F)c1cc(Br)ccc1O	1.12 µM	16.7	1.16 µM	4.11	1.13 µM	> 37.4	0.968 µM	8.12 µM	0.521 µM	4.08	0.705 µM	3.29 µM	0.604	14.2	0.763	–	2.13 µM	5.92	1.46 µM	> 26.1
c1ccc2c3ccn4cc5c(cc4c-3nc2c1)CCCC5	4.75 µM	17.5	3.3 µM	10.2	3.62 µM	51.2	4.47 µM	20.8 µM	3.01 µM	21.5	5.42 µM	38.2 µM	3.31	8.84	3.41	10.5	–	8.59	3.88 µM	19.5
NC(=O)C(=CNc1nc(-c2ccc(Cl)c(Cl)c2)cs1)C(N)=O	> 100 µM	> 100	> 100 µM	> 100	80.7 µM	> 100	60.8 µM	> 100 µM	26.9 µM	> 100	> 100 µM	> 100 µM	41.6	> 100	> 100	> 100	> 100 µM	> 100	43.8 µM	> 100
COc1ccccc1/C=C/c1cnccn1	–	> 10	–	> 10	–	> 10	–	> 10 µM	–	> 10	–	> 10 µM	–	> 10	–	> 10	–	> 10	–	> 10
